Source: patent US9371265B2, “Compositions and methods related to inhibitors of JAK kinase” (EP PHARMA, INC., priority 2012, dated 2016)

Assays:
IKK-alpha = IKK-alpha (Homo sapiens, UniProt O15111); experiment: Kinase panel: IKK-alpha; format: biochemical; details: 10 μM EP009
Description: (§1) Achieving JAK3 selectivity remains a significant challenge in the development of new small molecules for the treatment of cancer and immune-derived diseases. As such, the inventors employed cell-based screening assays of small-molecule libraries based upon the chemical scaffold of the established JAK3 inhibitor NC1153 (Stepkowski et al., J Immunol. (2005), 175(7):4236-4246) EP009 (FIG. 2A) was selected as a lead compound due to improved intrinsic stability (>95% purity in various solvents at 37° C. for 24 hours; FIG. 3) and high-degree of JAK3 selectivity. To test JAK3 versus JAK2 specificity of EP009, the IL-2/JAK3-dependent Kit225, and IL-3/JAK2-dependent BaF/3 cell lines were used. Kit225 and BaF/3 cells growing in the presence of IL-2 or IL-3, respectively, were treated with ascending concentrations of EP009 for 12 hours and cellular JAK3 and JAK2 tyrosine phosphorylation levels detected by Western blot analysis (FIGS. 2B and 2C). Following densitometric analysis, EP009 was determined to dose-dependently reduce IL-2-mediated JAK3 tyrosine phosphorylation with a cellular 50% inhibitory concentration (IC50) between 10 and 20 μM (FIG. 2B). […] To globally evaluate specificity, the inhibitory activity of EP009 was measured against a panel of protein kinases distributed throughout the kinome using the scanEDGE profiling service (KINOMEscan). […]

SU-DHL-1 tumors = experiment: SU-DHL-1 xenograft human lymphoma model; format: in vivo, SCID/NOD mice
Description: FIGS. 9A-9B Pharmacokinetics and efficacy of EP009 in vivo. (A) Sprague Dawley rats were administered EP009 by oral gavage (200 mg/kg) and pharmacokinetics measured by analysis of plasma concentrations at indicated time points. Values represent mean concentrations, while error bars represent the standard deviation (n=5). (B) Therapeutic study of EP009 in SU-DHL-1 model in SCID/NOD mice.
Severe combined immunodeficient/nonobese diabetic (SCID/NOD) mice were purchased from Charles River (Milan, Italy). The SU-DHL-1 model, 28 which was established by subcutaneous injection of 1×10^7 SU-DHL-1 cells in the left flank of SCID/NOD mice, served as the xenograft human lymphoma model. Tumor masses were measured with caliper in two perpendicular diameters in a blind fashion to determine the longest diameter. Progressively growing masses >1 mm in diameter were regarded as tumors. Mice were divided into three groups (n=8/group) and treatments initiated when tumors were established and measurable (day 16 after tumor challenge). Control mice received oral gavage of saline (placebo), while treated mice received EP009 orally (100 or 200 mg/kg) three times per week for six weeks. The study was terminated when tumors began to show signs of ulcerations and measurements became inaccurate (day 58). All animal were maintained in the animal facility of the Molecular Biotechnology Center, University of Turin and treated in accordance with the European guidelines.

PCTK1 = PCTK1 (Homo sapiens, UniProt Q00536); experiment: Kinase panel: PCTK1; format: biochemical; details: 10 μM EP009
Chain of PCTK1 (Q00536 whole entry): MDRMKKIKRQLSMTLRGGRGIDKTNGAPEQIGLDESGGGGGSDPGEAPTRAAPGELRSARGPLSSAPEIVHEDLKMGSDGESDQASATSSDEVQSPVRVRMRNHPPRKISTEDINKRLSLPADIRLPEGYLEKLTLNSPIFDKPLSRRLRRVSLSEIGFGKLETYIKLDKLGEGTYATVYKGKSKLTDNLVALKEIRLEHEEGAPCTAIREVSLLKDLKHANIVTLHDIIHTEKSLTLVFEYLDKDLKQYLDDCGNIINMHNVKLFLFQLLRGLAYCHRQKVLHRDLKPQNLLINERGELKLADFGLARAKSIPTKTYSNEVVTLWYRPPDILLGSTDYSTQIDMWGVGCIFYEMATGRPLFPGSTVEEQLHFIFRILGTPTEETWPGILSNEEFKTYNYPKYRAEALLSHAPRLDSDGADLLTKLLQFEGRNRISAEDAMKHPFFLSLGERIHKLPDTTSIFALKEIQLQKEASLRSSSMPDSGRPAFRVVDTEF
Description: as §1

AKT2 = AKT2 (Homo sapiens, UniProt P31751); experiment: Kinase panel: AKT2; format: biochemical; details: 10 μM EP009
Chain of AKT2 (P31751 whole entry): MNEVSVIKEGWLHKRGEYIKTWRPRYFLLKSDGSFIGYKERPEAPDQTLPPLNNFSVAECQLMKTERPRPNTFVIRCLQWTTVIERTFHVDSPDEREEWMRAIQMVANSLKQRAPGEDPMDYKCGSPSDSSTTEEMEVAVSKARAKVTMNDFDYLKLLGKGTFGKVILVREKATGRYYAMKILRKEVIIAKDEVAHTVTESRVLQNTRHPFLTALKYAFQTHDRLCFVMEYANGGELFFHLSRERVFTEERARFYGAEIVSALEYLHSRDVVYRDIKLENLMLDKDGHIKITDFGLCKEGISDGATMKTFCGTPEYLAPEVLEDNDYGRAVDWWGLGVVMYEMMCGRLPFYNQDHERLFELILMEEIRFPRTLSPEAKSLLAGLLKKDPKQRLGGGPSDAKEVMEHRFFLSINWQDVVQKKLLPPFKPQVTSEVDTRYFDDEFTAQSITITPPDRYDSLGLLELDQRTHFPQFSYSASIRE
Description: as §1

HEPG2 = HEPG2 cell viability (MTS); format: cell-based, human; details: 72 hours, concentrations giving complete loss of JAK3-dependent cell viability (0-10 μM)
Description: FIGS. 2A-2F. Selective inhibition of JAK3 by EP009 results in loss of JAK3-dependent tumor cell line viability with no detectable off-target effects in key cell types. (A) Chemical structure of EP009 (M.W. 224.34). (B) Kit225 or (C) BaF/3 cells cultured in the presence of IL-2 or IL-3, respectively, were treated with vehicle (PBS; lane a) or increasing amounts of EP009 (0-50 μM; lanes b-h) for 12 hours. Cells were then lysed, clarified, and immunoprecipitated (IP) with anti-JAK3 (α-JAK3) or anti-JAK2 (α-JAK2), and subjected to Western blot (WB) analysis with anti-phosphotyrosine (α-pY). Blots were stripped and reprobed with corresponding antibody to verify equivalent protein loading. […] (E) Kit225 or BaF/3 cells were cultured with increasing amounts of EP009 (0-10 μM) for 72 hours and cell viability measured with the MTS tetrazolium salt assay. Values represent mean absorbance (OD490-OD650 nm) normalized to vehicle (PBS) treated control cells, while error bars represent the standard deviation (n=3). (F) HEK293, HEPG2, or naïve primary human PBMCs were cultured with increasing amounts of EP009 (0-10 μM) for 72 hours and cell viability measured with the MTS tetrazolium salt assay. Values represent mean absorbance (OD490-OD650 nm) normalized to vehicle (PBS) treated control cells, while error bars represent the standard deviation (n=3). […]

p38-alpha = p38-alpha (Homo sapiens, UniProt Q16539); experiment: Kinase panel: p38-alpha; format: biochemical; details: 10 μM EP009
Chain of p38-alpha (Q16539 whole entry): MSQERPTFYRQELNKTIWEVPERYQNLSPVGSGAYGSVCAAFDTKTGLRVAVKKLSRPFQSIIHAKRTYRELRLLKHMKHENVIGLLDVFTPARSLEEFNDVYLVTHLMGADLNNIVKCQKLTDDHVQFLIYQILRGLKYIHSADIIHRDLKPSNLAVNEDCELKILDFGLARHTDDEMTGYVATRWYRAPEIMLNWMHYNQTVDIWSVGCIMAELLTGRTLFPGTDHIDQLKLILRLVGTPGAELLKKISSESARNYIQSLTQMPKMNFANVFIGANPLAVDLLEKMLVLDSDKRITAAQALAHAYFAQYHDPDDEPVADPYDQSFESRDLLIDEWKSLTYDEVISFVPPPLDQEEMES
Description: as §1

ADCK3 = ADCK3 (Homo sapiens, UniProt Q8NI60); experiment: Kinase panel: ADCK3; format: biochemical; details: 10 μM EP009
Chain of ADCK3 (Q8NI60 163-647): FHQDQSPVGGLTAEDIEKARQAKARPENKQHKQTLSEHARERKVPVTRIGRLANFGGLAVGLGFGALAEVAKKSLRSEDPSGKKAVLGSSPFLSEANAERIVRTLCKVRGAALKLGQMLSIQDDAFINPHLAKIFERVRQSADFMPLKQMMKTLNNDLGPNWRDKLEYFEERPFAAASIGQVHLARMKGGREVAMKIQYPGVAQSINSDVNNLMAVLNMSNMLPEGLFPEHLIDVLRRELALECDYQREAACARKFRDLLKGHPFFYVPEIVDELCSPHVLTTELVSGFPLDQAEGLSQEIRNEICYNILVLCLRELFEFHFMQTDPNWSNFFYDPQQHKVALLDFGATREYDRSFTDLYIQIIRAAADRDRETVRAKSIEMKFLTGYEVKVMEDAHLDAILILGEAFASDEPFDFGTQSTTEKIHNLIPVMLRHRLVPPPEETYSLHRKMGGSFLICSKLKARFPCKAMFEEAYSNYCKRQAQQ
Description: as §1

Chain of IKK-alpha (O15111 whole entry): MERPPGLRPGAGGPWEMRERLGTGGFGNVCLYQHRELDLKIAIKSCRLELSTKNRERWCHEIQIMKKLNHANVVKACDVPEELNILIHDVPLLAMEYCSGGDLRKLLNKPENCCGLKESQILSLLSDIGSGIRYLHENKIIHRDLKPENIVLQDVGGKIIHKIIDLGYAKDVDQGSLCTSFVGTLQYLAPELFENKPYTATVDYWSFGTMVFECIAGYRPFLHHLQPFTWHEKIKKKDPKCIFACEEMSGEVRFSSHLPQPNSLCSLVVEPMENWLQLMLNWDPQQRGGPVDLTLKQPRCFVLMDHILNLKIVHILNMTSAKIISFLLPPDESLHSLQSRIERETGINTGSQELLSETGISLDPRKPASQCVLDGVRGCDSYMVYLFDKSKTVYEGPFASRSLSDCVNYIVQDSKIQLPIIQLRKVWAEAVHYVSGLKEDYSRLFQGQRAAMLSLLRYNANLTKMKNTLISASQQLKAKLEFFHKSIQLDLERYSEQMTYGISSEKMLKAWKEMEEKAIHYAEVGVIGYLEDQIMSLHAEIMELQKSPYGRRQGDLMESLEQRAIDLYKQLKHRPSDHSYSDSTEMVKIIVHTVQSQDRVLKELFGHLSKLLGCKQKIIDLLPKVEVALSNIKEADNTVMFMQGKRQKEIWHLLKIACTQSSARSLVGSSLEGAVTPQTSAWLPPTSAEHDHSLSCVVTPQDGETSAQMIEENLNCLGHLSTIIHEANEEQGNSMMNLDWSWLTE

C=C1CCCCCCCCCC(CO)C1=O (stereo not drawn) [EP009, 2-(Hydroxymethyl)-12-methylenecyclododecanone]
Kinase Activity (% of Control) (IKK-alpha): 87 % of Control | tumor growth inhibition (SU-DHL-1 tumors; oral 100 mg/kg three times per week, p<0.05): 37.5% | tumor growth inhibition (SU-DHL-1 tumors; oral 200 mg/kg three times per week, p<0.01): 51% | body weight changes (SU-DHL-1 tumors; oral 100 and 200 mg/kg): No significant body weight changes | Kinase Activity (% of Control) (PCTK1): 85 % of Control | Kinase Activity (% of Control) (AKT2): 100 % of Control | effect on HEPG2 cell viability (HEPG2): no detectable loss of cell viability | Kinase Activity (% of Control) (p38-alpha): 100 % of Control | Kinase Activity (% of Control) (ADCK3): 98 % of Control
